According to ChEMBL document CHEMBL6134780, “Halogenated retinoid derivatives as dual RARα and RXRα modulators for treating acute promyelocytic leukemia cells” (Eur J Med Chem, 2024):
The source made the active and inactive calls. The rule behind the calls is not given here.

Columns and labels:
Format in all cases: functional
[1] = Cell cycle arrest in human ATRA-resistant NB4-LR2 cells assessed as accumulation of cells at G2/M phase at 2 uM incubated for 6 hrs by DAPI staining based flow cytometric analysis (reference value: 15 %)
NB-4 [2] = assay: Cell cycle arrest in human NB4 cells transfected with pLVX-shPML-RARalpha plasmid assessed as accumulation of cells at S phase at 2 uM incubated for 12 hrs by DAPI staining based flow cytometric analysis (reference value: 19 %)
NB-4 [3] = assay: Cell cycle arrest in human NB4 cells assessed as accumulation of cells at S phase at 1 uM incubated for 12 hrs by DAPI staining based flow cytometric analysis (reference value: 20 %)
[4] = Induction of apoptosis in human ATRA-resistant NB4-LR2 cells assessed as early apoptotic cells at 1 uM incubated for 24 hrs by Annexin V-FITC/PI staining based flow cytometric analysis (reference value: 1.41 %)
NB-4 [5] = assay: Cell cycle arrest in human NB4 cells assessed as accumulation of cells at sub-G1 phase at 2 uM incubated for 12 hrs by DAPI staining based flow cytometric analysis (reference value: 3 %)
[6] = Cell cycle arrest in human ATRA-resistant NB4-LR2 cells assessed as accumulation of cells at G2/M phase at 0.5 uM incubated for 24 hrs by DAPI staining based flow cytometric analysis (reference value: 25 %)
NB-4 [7] = assay: Cell cycle arrest in human NB4 cells transfected with pLVX-shPML-RARalpha plasmid assessed as accumulation of cells at G0/G1 phase at 1 uM incubated for 12 hrs by DAPI staining based flow cytometric analysis (reference value: 38 %)
NB-4 [8] = assay: Cell cycle arrest in human NB4 cells transfected with pLVX-shPML-RARalpha plasmid assessed as accumulation of cells at S phase at 1 uM incubated for 12 hrs by DAPI staining based flow cytometric analysis (reference value: 19 %)
NB-4 [9] = assay: Cell cycle arrest in human NB4 cells transfected with pLVX-shRXRalpha plasmid assessed as accumulation of cells at G2/M phase at 1 uM incubated for 12 hrs by DAPI staining based flow cytometric analysis (reference value: 17 %)
[10] = Cell cycle arrest in human ATRA-resistant NB4-LR2 cells assessed as accumulation of cells at G0/G1 phase at 2 uM incubated for 3 hrs by DAPI staining based flow cytometric analysis (reference value: 57 %)
[11] = Cell cycle arrest in human ATRA-resistant NB4-LR2 cells assessed as accumulation of cells at G2/M phase at 2 uM incubated for 3 hrs by DAPI staining based flow cytometric analysis (reference value: 15 %)
[12] = Cell cycle arrest in human ATRA-resistant NB4-LR2 cells assessed as accumulation of cells at S phase at 2 uM incubated for 3 hrs by DAPI staining based flow cytometric analysis (reference value: 19 %)
NB-4 [13] = assay: Cell cycle arrest in human NB4 cells assessed as accumulation of cells at G0/G1 phase at 2 uM incubated for 3 hrs by DAPI staining based flow cytometric analysis (reference value: 56 %)
[14] = Cell cycle arrest in human ATRA-resistant NB4-LR2 cells assessed as accumulation of cells at G0/G1 phase at 2 uM incubated for 24 hrs by DAPI staining based flow cytometric analysis (reference value: 42 %)
[15] = Cell cycle arrest in human ATRA-resistant NB4-LR2 cells assessed as accumulation of cells at G0/G1 phase at 0.5 uM incubated for 24 hrs by DAPI staining based flow cytometric analysis (reference value: 42 %)
NB-4 [16] = assay: Cell cycle arrest in human NB4 cells assessed as accumulation of cells at S phase at 1 uM incubated for 24 hrs by DAPI staining based flow cytometric analysis (reference value: 26 %)
[17] = Cell cycle arrest in human ATRA-resistant NB4-LR2 cells assessed as accumulation of cells at sub-G1 phase at 1 uM incubated for 24 hrs by DAPI staining based flow cytometric analysis (reference value: 12 %)
NB-4 [18] = assay: Cell cycle arrest in human NB4 cells assessed as accumulation of cells at G0/G1 phase at 1 uM incubated for 24 hrs by DAPI staining based flow cytometric analysis (reference value: 48 %)
[19] = Cell cycle arrest in human ATRA-resistant NB4-LR2 cells assessed as accumulation of cells at sub-G1 phase at 2 uM incubated for 12 hrs by DAPI staining based flow cytometric analysis (reference value: 9 %)
NB-4 [20] = assay: Cell cycle arrest in human NB4 cells assessed as accumulation of cells at sub-G1 phase at 1 uM incubated for 12 hrs by DAPI staining based flow cytometric analysis (reference value: 2 %)
NB-4 [21] = assay: Cell cycle arrest in human NB4 cells assessed as accumulation of cells at sub-G1 phase at 0.5 uM incubated for 24 hrs by DAPI staining based flow cytometric analysis (reference value: 3 %)
NB-4 [22] = assay: Cell cycle arrest in human NB4 cells assessed as accumulation of cells at S phase at 2 uM incubated for 12 hrs by DAPI staining based flow cytometric analysis (reference value: 20 %)
[23] = Cell cycle arrest in human ATRA-resistant NB4-LR2 cells assessed as accumulation of cells at G0/G1 phase at 2 uM incubated for 12 hrs by DAPI staining based flow cytometric analysis (reference value: 57 %)
NB-4 [24] = assay: Cell cycle arrest in human NB4 cells transfected with pLVX-shPML-RARalpha plasmid assessed as accumulation of cells at sub-G1 phase at 1 uM incubated for 12 hrs by DAPI staining based flow cytometric analysis (reference value: 21 %)
NB-4 [25] = assay: Cell cycle arrest in human NB4 cells transfected with pLVX-shPML-RARalpha plasmid assessed as accumulation of cells at G0/G1 phase at 2 uM incubated for 12 hrs by DAPI staining based flow cytometric analysis (reference value: 38 %)
NB-4 [26] = assay: Cell cycle arrest in human NB4 cells assessed as accumulation of cells at sub-G1 phase at 2 uM incubated for 3 hrs by DAPI staining based flow cytometric analysis (reference value: 3 %)
NB-4 [27] = assay: Cell cycle arrest in human NB4 cells transfected with pLVX-shRXRalpha plasmid assessed as accumulation of cells at S phase at 2 uM incubated for 12 hrs by DAPI staining based flow cytometric analysis (reference value: 19 %)
NB-4 [28] = assay: Cell cycle arrest in human NB4 cells assessed as accumulation of cells at G2/M phase at 2 uM incubated for 3 hrs by DAPI staining based flow cytometric analysis (reference value: 21 %)
ATRA-resistant NB4-LR2 [29] = assay: Cell cycle arrest in human ATRA-resistant NB4-LR2 cells assessed as accumulation of cells at G2/M phase at higher concentration by DAPI staining based flow cytometric analysis
NB-4 [30] = assay: Cell cycle arrest in human NB4 cells assessed as accumulation of cells at G2/M phase at 2 uM incubated for 3 to 12 hrs by DAPI staining based flow cytometric analysis; details: time 3-12 hrs
ATRA-resistant NB4-LR2 [31] = assay: Cell cycle arrest in human ATRA-resistant NB4-LR2 cells assessed as accumulation of cells at G2/M phase at 2 uM incubated for 3 to 12 hrs by DAPI staining based flow cytometric analysis; details: time 3-12 hrs

Work on Cc1cc2c(cc1C(=O)/C(Br)=C/c1ccc(C(=O)O)cc1)C(C)(C)CCC2(C)C yielded an Activity [1] of 26%, an Activity (NB-4 [2]) of 11% and an Activity (NB-4 [3]) of 13%. For the same molecule, the Activity [4] was 27.7%, the Activity (NB-4 [5]) was 4% and the Activity [6] was 33%. For the same molecule, the Activity (NB-4 [7]) was 27%, the Activity (NB-4 [8]) was 21% and the Activity (NB-4 [9]) was 45%. The Activity [10] was 48%, the Activity [11] was 33% and the Activity [12] was 6%. For the same molecule, the Activity (NB-4 [13]) was 48%, the Activity [14] was 34% and the Activity [15] was 37%. It also gave an Activity (NB-4 [16]) of 9%, an Activity [17] of 20% and an Activity (NB-4 [18]) of 38%. For the same molecule, the Activity [19] was 32%, the Activity (NB-4 [20]) was 5% and the Activity (NB-4 [21]) was 5%. For the same molecule, the Activity (NB-4 [22]) was 22%, the Activity [23] was 36% and the Activity (NB-4 [24]) was 24%. The Activity (NB-4 [25]) was 31%, the Activity (NB-4 [26]) was 3% and the Activity (NB-4 [27]) was 22%. It also gave an Activity (NB-4 [28]) of 28%.

For Cc1cc2c(cc1C(=O)/C(Br)=C\c1ccc(C(=O)O)cc1)C(C)(C)CCC2(C)C, the Activity (ATRA-resistant NB4-LR2 [29]) was “Active”, the Activity (NB-4 [30]) was “Active” and the Activity (ATRA-resistant NB4-LR2 [31]) was “Active”.
